Results: patent publication US10807958B2, “1,4-bis(3-aminopropyl)piperazine derivative and its use” (INSERM (Institut National de la Sante et de la Recherche …, priority 2015, dated 2020)

Columns and labels:
[1] = system: Neuroblastoma SKNSH-SY5Y cells expressing the human Tau isoform 412; assay: 2D gel electrophoresis of Tau isovariants in treated cells; format: cell-based; settings: 10 μM, vs control conditions, FIG. 2
Description: Pan-Tau and phospho-dependent Tau antibodies included Tau-Nter (M19G, 1/10 000, Sergeant et al., 1999), Tau-Cter (1/10 000, Sergeant et al., 1999, Le Freche et al., 2012), Tau-1 (1/5000, Merck Millipore), S199P (directed against the phospho-serine 199, 1/4000, Sergeant et al., 1999), Tau-Phospho S396 (directed against the phosphor-serine 396, 1/10000, Lifetechnologies), Tau-Phospho 404 (1/10 000, Lifetechnologies), 422 (clone 2H9, a homemade monoclonal antibody developed against a phospho-peptide containing the phosphorylated serine 422 residue of Tau, numbering according to the longest human brain Tau-441 isoform), AT8 (1/1000, Thermo Scientific), AT270 (1/2000, Thermo Scientific), AT100 (1/1000, Thermo Scientific). Neuron specific enolase (1/10 000), β-actin (1/5000) and β-tubulin (1/10 000) were from Sigma-Aldrich.
Human neuroblastoma cell line SKNSH-SY5Y cells expressing the human Tau isoform 412 (with the exon 2 and 10 encoding sequences) (or SY5Y-Tau46) was as previously described in Bretteville et al., 2009. […]
The effect of the compound of Formula I on Tau phosphorylation was analyzed in vitro and in vivo. […]
Expression and total phosphorylation was assessed by 1D and 2D gel electrophoresis using phospho-dependent and pan-Tau antibodies (FIGS. 1 and 2). […]

Thy-Tau22 mice = assay: Morris water maze spatial memory, Thy-Tau22 mice; format: in vivo, mouse; settings: 4 months
Description: Wild-type C57BL/6J animals of 3 months were purchased at Charles Rivers Laboratories (France) and were allow to acclimate in the animal facility for at least one week before any treatment. Thy-Tau22 transgenic colonies (C57BL/6J genetic background) were obtained by crossing heterozygous Thy-Tau22 males with C57BL/6 WT females. […] In this model, a progressive development of NFT is observed in the hippocampus and amygdala, which parallels behavioral impairments (Schindowski et al., 2006). Furthermorever, in the hippocampus, hyper- and abnormally phosphorylated Tau species accumulate within the somato-dendritic area (Schindowski et al., 2006).
For animal treatment, animals were randomly distributed and the compound of Formula I was given in the drinking water at final concentration of 0.5 or 1 mg/kg. Drinking bottles were changed once per week, volume consumption was measured along the treatment period. Food consumption and body weight were assessed. In wild-type animals the pilot study of drug treatment was performed for one month to establish the innocuousness of the treatment with the compound of Formula I. This was based on the physiological, social and behavioural assessments. Thy-Tau22 males were treated for 4 months starting at 3 month old. All protocols were approved by the local ethics committee (n^∘342012, CEEA).
Before any behavioral test, exploratory and locomotion of treated and untreated animal were evaluated in a Open field (OF) 25 cm×25 cm arena. Four acquisitions in joined arena were performed simultaneously. Each mouse was placed in the arena and allowed to explore for at least 5 min. Parameters including distance, speed, velocity were acquired by video recording using the EthoVision video tracking equipment and software (Noldus, Information Technology, Paris, France) in a dedicated room. The anxiety, which could interfere with memory test, was evaluated by the elevated plus maze (EPM). […] Locomotion, distance, speed and velocity were measured as well as the number of arm entries, time spent in the open versus closed arms, percentage of open arm entries and time per minute spent in the open arms on a total of 5 min test.
Spatial learning and memory abilities were assessed in a standard hidden-platform acquisition and retention version of the Morris water maze task (Van der Jeugd et al., 2013). […] The time required to find the hidden rescue platform (escape latency) was used as a spatial learning index and was recorded using the Ethovision XT video tracking system (Noldus France). Swimming speed and total distance were also measured. 72 h after the acquisition phase, the hidden platform was removed and spatial memory was evaluated in a 60 s probe trial. […]

Q: For `CC(C)CN(CCCN1CCN(CCCNc2c3c(nc4ccccc24)CCCC3)CC1)CC(C)C` [compound of Formula I, N-[3-(4-{3-[Bis(2-methylpropyl)amino]propyl}piperazin-1-yl)propyl]-1,2,3,4-tetrahydroacridin-9-amine], which “Tau isovariants at the neutral pI, N- and C-terminal directed pan-Tau antibodies” value [1] is on record?
A: reduction

Q: What about the “Tau isovariants at the neutral pI, Tau396 phospho-dependent antibody (S396)” value [1] of the same molecule?
A: reduction

Q: And the “probe test, spatial memory in Thy-Tau22 mice” value (Thy-Tau22 mice; 0.5 mg/kg, probe test 72 hours after last learning day)?
A: preserved

Q: What about the “development of spatial memory impairments (ANOVA statistical analysis)” value (Thy-Tau22 mice; Thy-Tau22 mice, 0.5 mg/kg) of the same molecule?
A: protected or preserved

Q: And the “time spent in the target quadrant versus the others” value (Thy-Tau22 mice; Thy-Tau22 treated, 0.5 mg/kg, untreated spent equal % of time, FIG. 4B)?
A: more time

Q: And the “learning phase (distance to reach the platform) between the animal groups” value (Thy-Tau22 mice; WT and Thy-Tau22, treated or not with 0.5 mg/kg, FIG. 4A)?
A: not significantly different
